The numbers were not newly measured in US4440778A, “Anti-inflammatory analgesic cataplasm and process for producing the same” (Kowa Co., Ltd., priority 1981, dated 1984), which cites them from elsewhere.

The conditions of data set [1]: administered orally.
Assay in data set [2]: not given
The source holds these as a separate data set.

The mark [3] stands for this setting: mixed with and suspended in base components, pH 7 or higher.

As to `COc1ccc2c(c1)c(CC(=O)O)c(C)n2C(=O)c1ccc(Cl)cc1` [indomethacin, Indomethacin], the “absorbability through the skin in a pH range of 7 or higher” value under setting [3] is reported as “less absorbable through the skin”. For the same compound, under “stratum corneum and basal cell layer act as barriers”, the percutaneous absorption entry is recorded as “not subject to percutaneous absorption”. In data set [1], the “adverse effects: central nervous system troubles” value was “central nervous system troubles such as frontal head ache, drowsiness, dizziness and mental disorders”; the “adverse effects: gastroenteric troubles” value was “gastroenteric troubles such as decreased appetite, nausea, vomiting, indigestion, diarrhoea and stomach ache”. In addition, in data set [2] (alkaline solution), the “chemical stability when dissolved in an alkaline solution” value is “chemically unstable and readily decomposable”; the “solubility in an alkaline solution” value is given as “soluble in an alkaline solution”. Besides, the “stability in a pH range of 7 or higher” value in data set [2] (setting [3]) is recorded as “less stable”. For the same compound, the solubility in water result in data set [2] (water) is recorded as “insoluble in water”.
